Results as given in the CheMixHub viscosity set.
± gives the uncertainty stated by the source.

Test: xn = mol fraction of the nth substance listed

ClC(Cl)Cl + CCCO
viscosity [mPa·s]
Details | 101 kPa | 101.3 kPa
293.15 K, x2 = 0.1045 | 0.7119 ± 0.015 | –
293.15 K, x2 = 0.2064 | 0.7711 ± 0.017 | –
293.15 K, x2 = 0.3054 | 0.8524 ± 0.018 | –
293.15 K, x2 = 0.4027 | 0.9582 ± 0.02 | –
293.15 K, x2 = 0.5075 | 1.105 ± 0.024 | –
293.15 K, x2 = 0.6005 | 1.255 ± 0.027 | –
293.15 K, x2 = 0.7045 | 1.507 ± 0.032 | –
293.15 K, x2 = 0.8005 | 1.746 ± 0.037 | –
293.15 K, x2 = 0.8967 | 1.998 ± 0.043 | –
303 K, x1 = 0.2987 | – | 1.065 ± 0.018
303 K, x1 = 0.4992 | – | 0.8162 ± 0.014
303 K, x1 = 0.699 | – | 0.6346 ± 0.011
303 K, x1 = 0.9085 | – | 0.5383 ± 0.0099
303.15 K, x2 = 0.059 | 0.5225 ± 0.0044 | 0.5225 ± 0.014
303.15 K, x2 = 0.1045 | 0.6482 ± 0.014 | –
303.15 K, x2 = 0.1099 | 0.5365 ± 0.0046 | 0.5365 ± 0.014
303.15 K, x2 = 0.1428 | 0.5488 ± 0.0046 | 0.5488 ± 0.015
303.15 K, x2 = 0.1958 | 0.5706 ± 0.0048 | 0.5706 ± 0.015
303.15 K, x2 = 0.2064 | 0.6878 ± 0.015 | –
303.15 K, x2 = 0.2432 | 0.5949 ± 0.005 | 0.5949 ± 0.016
303.15 K, x2 = 0.3054 | 0.7556 ± 0.016 | –
303.15 K, x2 = 0.3447 | 0.6588 ± 0.0055 | 0.6588 ± 0.017
303.15 K, x2 = 0.4027 | 0.8383 ± 0.018 | –
303.15 K, x2 = 0.4974 | 0.8026 ± 0.0065 | 0.8026 ± 0.021
303.15 K, x2 = 0.5075 | 0.9487 ± 0.02 | –
303.15 K, x2 = 0.6005 | 1.073 ± 0.023 | –
303.15 K, x2 = 0.6171 | 0.9716 ± 0.0078 | 0.9716 ± 0.026
303.15 K, x2 = 0.7045 | 1.242 ± 0.026 | –
303.15 K, x2 = 0.7318 | 1.185 ± 0.0093 | 1.185 ± 0.031
303.15 K, x2 = 0.8005 | 1.408 ± 0.03 | –
303.15 K, x2 = 0.8606 | 1.46 ± 0.011 | 1.46 ± 0.038
303.15 K, x2 = 0.8967 | 1.584 ± 0.034 | –
303.15 K, x2 = 0.9106 | 1.565 ± 0.012 | 1.565 ± 0.041
303.15 K, x2 = 0.9251 | 1.595 ± 0.012 | 1.595 ± 0.042
303.15 K, x2 = 0.9307 | 1.606 ± 0.012 | –
303.15 K, x2 = 0.95 | 1.643 ± 0.013 | –
311 K, x1 = 0.0987 | – | 1.283 ± 0.021
311 K, x1 = 0.2987 | – | 0.9064 ± 0.015
311 K, x1 = 0.4992 | – | 0.7227 ± 0.013
311 K, x1 = 0.699 | – | 0.5734 ± 0.01
311 K, x1 = 0.9085 | – | 0.4977 ± 0.0093
313.15 K, x2 = 0.1045 | 0.5901 ± 0.013 | –
313.15 K, x2 = 0.2064 | 0.6192 ± 0.013 | –
313.15 K, x2 = 0.3054 | 0.6675 ± 0.014 | –
313.15 K, x2 = 0.4027 | 0.7329 ± 0.016 | –
313.15 K, x2 = 0.5075 | 0.8143 ± 0.017 | –
313.15 K, x2 = 0.6005 | 0.9163 ± 0.02 | –
313.15 K, x2 = 0.7045 | 1.043 ± 0.022 | –
313.15 K, x2 = 0.8967 | 1.278 ± 0.027 | –
319 K, x1 = 0.0987 | – | 1.08 ± 0.018
319 K, x1 = 0.2941 | – | 0.8178 ± 0.014
319 K, x1 = 0.497 | – | 0.6404 ± 0.011
319 K, x1 = 0.699 | – | 0.5202 ± 0.0096
319 K, x1 = 0.9085 | – | 0.4655 ± 0.0088
323.15 K, x2 = 0.1045 | 0.4791 ± 0.01 | –
323.15 K, x2 = 0.2064 | 0.535 ± 0.011 | –
323.15 K, x2 = 0.3054 | 0.5965 ± 0.013 | –
323.15 K, x2 = 0.4027 | 0.6495 ± 0.014 | –
323.15 K, x2 = 0.5075 | 0.7165 ± 0.015 | –
323.15 K, x2 = 0.6005 | 0.7941 ± 0.017 | –
323.15 K, x2 = 0.7045 | 0.8805 ± 0.019 | –
323.15 K, x2 = 0.8005 | 0.965 ± 0.021 | –
323.15 K, x2 = 0.8967 | 1.047 ± 0.022 | –

ClC(Cl)Cl + CN(C)C=O
viscosity [mPa·s], 101 kPa
Details | 293.15 K | 303.15 K | 313.15 K | 323.15 K
x2 = 0.0512 | 0.7325 ± 0.15 | 0.6616 ± 0.13 | 0.6031 ± 0.12 | –
x2 = 0.1011 | 0.7913 ± 0.16 | 0.7089 ± 0.14 | 0.636 ± 0.13 | 0.5823 ± 0.12
x2 = 0.1954 | 0.9132 ± 0.18 | 0.8102 ± 0.16 | – | 0.6447 ± 0.13
x2 = 0.1955 | – | – | 0.7206 ± 0.14 | –
x2 = 0.2975 | 1.025 ± 0.2 | 0.901 ± 0.18 | 0.7977 ± 0.16 | 0.7077 ± 0.14
x2 = 0.392 | 1.095 ± 0.22 | 0.9598 ± 0.19 | 0.8479 ± 0.17 | 0.7408 ± 0.15
x2 = 0.5008 | 1.128 ± 0.23 | 0.9894 ± 0.2 | 0.8735 ± 0.17 | 0.7803 ± 0.16
x2 = 0.5983 | 1.123 ± 0.23 | 0.9851 ± 0.2 | 0.8753 ± 0.18 | 0.7856 ± 0.16
x2 = 0.6918 | 1.091 ± 0.22 | 0.9617 ± 0.19 | 0.8556 ± 0.17 | 0.7692 ± 0.15
x2 = 0.7851 | 1.051 ± 0.21 | 0.9294 ± 0.19 | 0.8306 ± 0.17 | 0.7493 ± 0.15
x2 = 0.8951 | 0.9944 ± 0.2 | – | 0.7921 ± 0.16 | 0.7179 ± 0.14
x2 = 0.8952 | – | 0.8835 ± 0.18 | – | –

ClC(Cl)Cl + CCCCCCCCCCO
viscosity [mPa·s], 101 kPa
Details | 303.15 K | 313.15 K
x1 = 0.0523 | 8.774 ± 0.17 | 6.174 ± 0.13
x1 = 0.1025 | 7.938 ± 0.16 | 5.59 ± 0.12
x1 = 0.1519 | 7.108 ± 0.15 | 5.068 ± 0.11
x1 = 0.1992 | 6.311 ± 0.13 | 4.603 ± 0.1
x1 = 0.2501 | 5.65 ± 0.12 | 4.121 ± 0.095
x1 = 0.2992 | 5.021 ± 0.11 | 3.726 ± 0.088
x1 = 0.3497 | 4.374 ± 0.099 | 3.291 ± 0.08
x1 = 0.4005 | 3.838 ± 0.089 | 2.935 ± 0.074
x1 = 0.451 | 3.293 ± 0.08 | 2.571 ± 0.068
x1 = 0.5 | 2.873 ± 0.073 | 2.259 ± 0.063
x1 = 0.5504 | 2.439 ± 0.066 | 1.974 ± 0.059
x1 = 0.5991 | 2.098 ± 0.06 | 1.697 ± 0.055
x1 = 0.6496 | 1.778 ± 0.056 | 1.48 ± 0.052
x1 = 0.699 | 1.501 ± 0.052 | 1.251 ± 0.049
x1 = 0.7508 | 1.277 ± 0.049 | 1.076 ± 0.047
x1 = 0.799 | 1.052 ± 0.047 | 0.911 ± 0.045
x1 = 0.8513 | 0.916 ± 0.045 | 0.77 ± 0.044
x1 = 0.8999 | 0.784 ± 0.044 | 0.661 ± 0.043
x1 = 0.9501 | 0.651 ± 0.043 | 0.561 ± 0.042

ClC(Cl)Cl + CC1COC(=O)O1
303.15 K, 101.3 kPa
Details | viscosity [mPa·s]
x2 = 0.0961 | 0.5649 ± 0.01
x2 = 0.1929 | 0.6358 ± 0.011
x2 = 0.2906 | 0.7195 ± 0.013
x2 = 0.3894 | 0.8171 ± 0.014
x2 = 0.4887 | 0.9421 ± 0.016
x2 = 0.5894 | 1.098 ± 0.018
x2 = 0.6906 | 1.287 ± 0.021
x2 = 0.7925 | 1.52 ± 0.025
x2 = 0.8962 | 1.808 ± 0.029

OCC(F)(F)C(F)(F)F + O
viscosity [mPa·s], 100 kPa
Details | x1 = 0.5504 | x1 = 0.6564 | x1 = 0.7892 | x1 = 0.8991
298.15 K | 2.607 ± 0.061 | 2.626 ± 0.059 | 2.774 ± 0.059 | 3.069 ± 0.064
323.15 K | 1.263 ± 0.03 | 1.278 ± 0.029 | 1.318 ± 0.028 | 1.401 ± 0.03
